Columns and labels:
Recombinant human JAK1 = target: T1, Recombinant human JAK1 (Homo sapiens, UniProt P23458); test: JAK1 Ulight-JAK1 peptide assay; assay type: biochemical; details: Ulight-JAK1(tyr1023) peptide, 7 μM ATP
T1 construct: catalytic domain (amino acids 866-1154; catalog number PV4774); purchased Invitrogen PV4774
Method: Recombinant human JAK1 (catalytic domain, amino acids 866-1154; catalog number PV4774) was purchased from Invitrogen. 1 ng of JAK1 was incubated with 20 nM Ulight-JAK1(tyr1023) peptide (Perkin Elmer catalog number TRF0121) in kinase reaction buffer (25 mM MOPS pH6.8, 0.01% Brij-35, 5 mM MgCl2, 2 mM DTT, 7 μM ATP) with or without 4 μL containing test compound or vehicle (DMSO, 1% final concentration), in a total volume of 20 μL, in a white 384 Opti plate (Perkin Elmer, catalog number 6007290). After 60 min at room temperature, reactions were stopped by adding 20 μL/well of detection mixture (1× detection buffer (Perkin Elmer, catalog number CR97-100C), 0.5 nM Europium-anti-phosphotyrosine (PT66) (Perkin Elmer, catalog number AD0068), 10 mM EDTA). Readout is performed using the Envision with excitation at 320 nm and measuring emission at 615 nm (Perkin Elmer). Kinase activity was calculated by subtracting relative fluorescence units (RFU) obtained in the presence of a positive control inhibitor (10 μM staurosporine) from RFU obtained in the presence of vehicle. The ability of a test compound to inhibit this activity was determined as: Percentage inhibition=((RFU determined for sample with test compound present−RFU determined for sample with positive control inhibitor)divided by(RFU determined in the presence of vehicle−RFU determined for sample with positive control inhibitor))*100.
Dose dilution series were prepared for the compounds enabling the testing of dose-response effects in the JAK1 assay and the calculation of the IC50 for the compound. Each compound is routinely tested at concentration of 20 μM followed by a ⅕ serial dilution, 10 points in a final concentration of 1% DMSO. When potency of compound series increases, more dilutions are prepared and/or the top concentration are lowered (e.g. 5 μM, 1 μM). The data are expressed as the average IC50 from the assays±standard error of the mean.

[1] = target: T2, Recombinant human JAK3 catalytic domain (Homo sapiens, UniProt P52333); test: JAK3 inhibition assay; assay type: biochemical; details: polyGT substrate, 33P-gamma-ATP filter assay, 1 μM ATP
T2 construct: catalytic domain (amino acids 795-1124; catalog number 08-046); purchased Carna Biosciences 08-046
Method: Recombinant human JAK3 catalytic domain (amino acids 795-1124; catalog number 08-046) was purchased from Carna Biosciences. 0.5 ng JAK3 protein was incubated with 2.5 μg polyGT substrate (Sigma catalog number P0275) in kinase reaction buffer (25 mM Tris pH 7.5, 0.5 mM EGTA, 10 mM MgCl2, 2.5 mM DTT, 0.5 mM Na3VO4, 5 mM b-glycerolphosphate, 0.01% Triton X-100, 1 μM non-radioactive ATP, 0.25 μCi ^33P-gamma-ATP (Perkin Elmer, catalog number NEG602K001MC) final concentrations) with or without 5 μL containing test compound or vehicle (DMSO, 1% final concentration), in a total volume of 25 μL, in a polypropylene 96-well plate (Greiner, V-bottom). After 45 min at 30° C., reactions were stopped by adding 25 μL/well of 150 mM phosphoric acid. All of the terminated kinase reaction was transferred to prewashed (75 mM phosphoric acid) 96 well filter plates (Perkin Elmer catalog number 6005177) using a cell harvester (Perkin Elmer). Plates were washed 6 times with 300 μL per well of a 75 mM phosphoric acid solution and the bottom of the plates was sealed. 40 μL/well of Microscint-20 was added, the top of the plates was sealed and readout was performed using the Topcount (Perkin Elmer). Kinase activity was calculated by subtracting counts per min (cpm) obtained in the presence of a positive control inhibitor (10 μM staurosporine) from cpm obtained in the presence of vehicle. The ability of a test compound to inhibit this activity was determined as: Percentage inhibition=((cpm determined for sample with test compound present−cpm determined for sample with positive control inhibitor)divided by(cpm determined in the presence of vehicle−cpm determined for sample with positive control inhibitor))*100.
Dose dilution series were prepared for the compounds enabling the testing of dose-response effects in the JAK3 assay and the calculation of the IC50 for each compound. Each compound was routinely tested at concentration of 20 μM followed by a ⅕ serial dilution, 10 points in a final concentration of 1% DMSO. When potency of compound series increased, more dilutions were prepared and/or the top concentration was lowered (e.g. 5 μM, 1 μM).

[2] = test system: JAK-STAT signalling in HeLa cells; test: JAK-STAT signalling assay (pSTAT1(2)-luciferase reporter, OSM-triggered HeLa cells); assay type: cell-based; details: human OSM 33 ng/mL
Method: HeLa cells were maintained in Dulbecco's Modified Eagle's Medium (DMEM) containing 10% heat inactivated fetal calf serum, 100 U/mL penicillin and 100 μg/mL streptomycin. HeLa cells were used at 70% confluence for transfection. 20,000 cells in 87 μL cell culture medium were transiently transfected with 40 ng pSTAT1(2)-luciferase reporter (Panomics), 8 ng of LacZ reporter as internal control reporter and 52 ng of pBSK using 0.32 μL Jet-PEI (Polyplus) as transfection reagent per well in 96-well plate format. After overnight incubation at 37° C., 5% CO2, transfection medium was removed. 81 μL of DMEM+1.5% heat inactivated fetal calf serum was added. 9 μL compound at 10× concentration was added for 60 min and then 10 μL of human OSM (Peprotech) at 33 ng/mL final concentration.
All compounds were tested in duplicate starting from 20 μM followed by a ⅓ serial dilution, 8 doses in total (20 μM-6.6 μM-2.2 μM-740 nM-250 nM-82 nM-27 nM-9 nM) in a final concentration of 0.2% DMSO.
After overnight incubation at 37° C., 5% CO2 cells were lysed by adding 100 μL lysis buffer/well (PBS, 0.9 mM CaCl2, 0.5 mM MgCl2, 10% Trehalose, 0.05% Tergitol NP9, 0.3% BSA).
40 μL of cell lysate was used to read β-galactosidase activity by adding 180 μL β-Gal solution (30 μl ONPG 4 mg/mL+150 μL β-Galactosidase buffer (0.06 M Na2HPO4, 0.04 M NaH2PO4, 1 mM MgCl2)) for 20 min. The reaction was stopped by addition of 50 μL Na2CO3 1 M. Absorbance was read at 405 nm.
Luciferase activity was measured using 40 μL cell lysate plus 40 μL of Steadylite® as described by the manufacturer (Perkin Elmer), on the Envision (Perkin Elmer).
Omitting OSM was used as a positive control (100% inhibition). As negative control 0.5% DMSO (0% inhibition) was used. The positive and negative controls were used to calculate z′ and ‘percent inhibition’ (PIN) values. Percentage inhibition=((fluorescence determined in the presence of vehicle−fluorescence determined for sample with test compound present)divided by(fluorescence determined in the presence of vehicle−fluorescence determined for sample without trigger))*100.
PIN values were plotted for compounds tested in dose-response and EC50 values were derived.

T2 sequence (P52333 795-1124): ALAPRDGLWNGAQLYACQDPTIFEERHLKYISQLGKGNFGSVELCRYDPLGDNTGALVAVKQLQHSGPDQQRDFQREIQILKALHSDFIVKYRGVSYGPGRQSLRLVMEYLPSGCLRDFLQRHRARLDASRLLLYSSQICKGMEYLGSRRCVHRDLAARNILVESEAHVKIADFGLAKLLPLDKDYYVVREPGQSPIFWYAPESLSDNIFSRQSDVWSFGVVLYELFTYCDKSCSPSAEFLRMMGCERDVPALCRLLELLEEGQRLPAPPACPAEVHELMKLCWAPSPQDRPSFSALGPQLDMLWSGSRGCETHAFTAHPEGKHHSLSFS
T1 sequence (P23458 866-1154): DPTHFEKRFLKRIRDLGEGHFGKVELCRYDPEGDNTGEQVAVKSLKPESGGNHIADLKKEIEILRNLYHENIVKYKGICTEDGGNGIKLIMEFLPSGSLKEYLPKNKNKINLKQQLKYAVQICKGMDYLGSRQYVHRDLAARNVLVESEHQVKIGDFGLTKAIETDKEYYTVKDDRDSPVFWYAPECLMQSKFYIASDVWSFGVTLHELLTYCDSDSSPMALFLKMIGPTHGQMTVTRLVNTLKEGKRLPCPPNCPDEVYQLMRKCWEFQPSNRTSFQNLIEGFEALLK

SMILES	IC50 (Recombinant human JAK1)	IC50 [1]	IC50 [2]
COc1ccc(-c2cccn3nc(NC(=O)C4CC4)cc23)cc1 [Compound 1, N-(4-(4-methoxyphenyl)pyrazolo[1,5-a]pyridin-2-yl)cyclopropanecarboxamide]	0.01 to 100 nM	0.01 to 100 nM	> 1000 nM
O=C(Nc1cc2c(-c3ccc(OCc4ccccc4)cc3)cccn2n1)C1CC1 [Compound 2, N-(4-(4-(benzyloxy)phenyl)pyrazolo[1,5-a]pyridin-2-yl)cyclopropanecarboxamide]	101 to 500 nM	0.01 to 100 nM	
O=C(Nc1cc2c(-c3ccc4c(ccn4Cc4ccccc4)c3)cccn2n1)C1CC1 [Compound 3, N-(4-(1-benzyl-1H-indol-5-yl)pyrazolo[1,5-a]pyridin-2-yl)cyclopropanecarboxamide]	> 1000 nM	0.01 to 100 nM	> 1000 nM
O=C(Nc1cc2c(-c3ccc4[nH]ccc4c3)cccn2n1)C1CC1 [Compound 4, N-(4-(1H-indol-5-yl)pyrazolo[1,5-a]pyridin-2-yl)cyclopropanecarboxamide]	101 to 500 nM	0.01 to 100 nM	> 1000 nM
O=C(NCCc1ccccc1)c1ccc(-c2cccn3nc(NC(=O)C4CC4)cc23)cc1 [Compound 5, 4-(2-(cyclopropanecarboxamido)pyrazolo[1,5-a]pyridin-4-yl)-N-phenethylbenzamide]	0.01 to 100 nM	> 1000 nM	101 to 500 nM
O=C(NCCOc1ccccc1)c1ccc(-c2cccn3nc(NC(=O)C4CC4)cc23)cc1 [Compound 6, 4-(2-(cyclopropanecarboxamido)pyrazolo[1,5-a]pyridin-4-yl)-N-(2-phenoxyethyl)benzamide]	0.01 to 100 nM	0.01 to 100 nM	101 to 500 nM
COc1ccc(-c2cccn3nc(NC(=O)C4CC4)c(-c4ccccc4)c23)cc1 [Compound 7, N-(4-(4-methoxyphenyl)-3-phenylpyrazolo[1,5-a]pyridin-2-yl)cyclopropanecarboxamide]	> 1000 nM	> 1000 nM	
O=C(Nc1cc2c(-c3ccc(OCc4cccnc4)cc3)cccn2n1)C1CC1 [Compound 8, N-(4-(4-(pyridin-3-ylmethoxy)phenyl)pyrazolo[1,5-a]pyridin-2-yl)cyclopropanecarboxamide]		101 to 500 nM	> 1000 nM
N#Cc1ccc(COc2ccc(-c3cccn4nc(NC(=O)C5CC5)cc34)cc2)cn1 [Compound 9, N-(4-(4-((6-cyanopyridin-3-yl)methoxy)phenyl)pyrazolo[1,5-a]pyridin-2-yl)cyclopropanecarboxamide]	0.01 to 100 nM	0.01 to 100 nM	101 to 500 nM
CC(=O)Nc1cc2c(-c3ccc(CN4CCN(CC(F)(F)F)CC4)c(F)c3)cccn2n1 [Compound 28, N-(4-(3-fluoro-4-((4-(2,2,2-trifluoroethyl)piperazin-1-yl)methyl)phenyl)pyrazolo[1,5-a]pyridin-2-yl)acetamide]	0.01 to 100 nM	101 to 500 nM	
CC(=O)Nc1cc2c(-c3ccc(CC(=O)N4CCCCC4)cc3)cccn2n1 [Compound 35, N-(4-(4-(2-oxo-2-(piperidin-1-yl)ethyl)phenyl)pyrazolo[1,5-a]pyridin-2-yl)acetamide]	101 to 500 nM	0.01 to 100 nM	
CC(=O)Nc1cc2c(-c3ccc(CC(=O)N4CCOCC4)cc3)cccn2n1 [Compound 36, N-(4-(4-(2-morpholino-2-oxoethyl)phenyl)pyrazolo[1,5-a]pyridin-2-yl)acetamide]	101 to 500 nM	101 to 500 nM	
CC(=O)Nc1cc2c(-c3ccc(CC(=O)N4COCC4(C)C)cc3)cccn2n1 [Compound 38, N-(4-(4-(2-(4,4-dimethyloxazolidin-3-yl)-2-oxoethyl)phenyl)pyrazolo[1,5-a]pyridin-2-yl)acetamide]	101 to 500 nM	501 to 1000 nM	
CC(c1ccc(-c2cccn3nc(NC(=O)C4CC4)cc23)cc1)N1CCN(S(C)(=O)=O)CC1 (stereo not shown) [Compound 43, N-(4-(4-(1-(4-(methylsulfonyl)piperazin-1-yl)ethyl)phenyl)pyrazolo[1,5-a]pyridin-2-yl)cyclopropanecarboxamide]	0.01 to 100 nM	0.01 to 100 nM	

From patent publication US8975406B2, “Compound useful for the treatment of degenerative and inflammatory diseases” (Galapagos N.V., priority 2011, dated 2015)
